Test results published in article doi:10.1101/2024.08.13.607785v1 (biorxiv, 2024).
Like-named read-outs stand apart in the source and are kept apart here.

Legend:
Assay in all cases: biochemical
Set-up in all cases: species or system human cell line lysate
[1] = target: cAMP-dependent protein kinase catalytic subunit alpha ; PRKACA ; P17612 (Homo sapiens, UniProt P17612)
[2] = target: Isoform 4 of LIM domain kinase 1 ; LIMK1 ; P53667-4 (Homo sapiens, UniProt P53667)
[3] = target: Serine/threonine-protein kinase SIK3 ; SIK3 ; Q9Y2K2 (Homo sapiens, UniProt Q9Y2K2)
[4] = target: Maternal embryonic leucine zipper kinase ; MELK ; Q14680 (Homo sapiens, UniProt Q14680)
[5] = target: Ephrin type-A receptor 4 ; EPHA4 ; P54764 (Homo sapiens, UniProt P54764)
[6] = target: Serine/threonine-protein kinase TAO2 ; TAOK2 ; Q9UL54 (Homo sapiens, UniProt Q9UL54)
[7] = target: Mitogen-activated protein kinase kinase kinase 9 ; MAP3K9 ; P80192 (Homo sapiens, UniProt P80192)
[8] = target: MAP/microtubule affinity-regulating kinase 3 ; MARK3 ; P27448 (Homo sapiens, UniProt P27448)
[9] = target: Beta-adrenergic receptor kinase 2 ; GRK3 ; P35626 (Homo sapiens, UniProt P35626)
[10] = target: Serine/threonine-protein kinase ULK2 ; ULK2 ; Q8IYT8 (Homo sapiens, UniProt Q8IYT8)
[11] = target: Serine/threonine-protein kinase PLK4 ; PLK4 ; O00444 (Homo sapiens, UniProt O00444)
Serine/threonine-protein kinase PLK4 ; PLK4 ; O00444, sequence (O00444 whole entry, one chain of several): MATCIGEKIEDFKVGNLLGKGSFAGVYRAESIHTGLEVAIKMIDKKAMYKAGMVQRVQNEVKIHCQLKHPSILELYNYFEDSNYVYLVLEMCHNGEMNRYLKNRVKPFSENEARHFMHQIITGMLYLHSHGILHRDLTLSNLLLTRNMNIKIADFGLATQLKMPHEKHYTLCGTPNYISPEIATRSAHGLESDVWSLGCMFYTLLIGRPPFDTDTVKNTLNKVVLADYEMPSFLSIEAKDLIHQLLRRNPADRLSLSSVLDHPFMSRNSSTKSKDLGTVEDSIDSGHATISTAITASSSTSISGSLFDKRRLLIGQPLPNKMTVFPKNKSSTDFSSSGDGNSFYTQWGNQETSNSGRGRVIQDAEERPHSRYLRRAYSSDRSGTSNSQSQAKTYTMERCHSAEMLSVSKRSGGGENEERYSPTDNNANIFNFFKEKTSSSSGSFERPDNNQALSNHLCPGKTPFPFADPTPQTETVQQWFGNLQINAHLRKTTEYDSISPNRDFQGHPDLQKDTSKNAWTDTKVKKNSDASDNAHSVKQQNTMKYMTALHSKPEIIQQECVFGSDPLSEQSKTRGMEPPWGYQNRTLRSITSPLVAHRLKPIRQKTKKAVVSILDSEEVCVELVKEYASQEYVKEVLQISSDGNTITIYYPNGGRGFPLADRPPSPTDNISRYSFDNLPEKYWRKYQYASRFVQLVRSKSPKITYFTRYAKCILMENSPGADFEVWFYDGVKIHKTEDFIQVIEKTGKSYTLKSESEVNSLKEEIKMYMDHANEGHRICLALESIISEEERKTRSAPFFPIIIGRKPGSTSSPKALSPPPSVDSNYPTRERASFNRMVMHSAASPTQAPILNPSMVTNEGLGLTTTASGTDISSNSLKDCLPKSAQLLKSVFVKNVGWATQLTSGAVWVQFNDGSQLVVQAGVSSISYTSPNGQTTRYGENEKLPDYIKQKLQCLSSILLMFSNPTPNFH

[12] = target: Serine/threonine-protein kinase D3 ; PRKD3 ; O94806 (Homo sapiens, UniProt O94806)
Serine/threonine-protein kinase D3 ; PRKD3 ; O94806, sequence (O94806 whole entry, one chain of several): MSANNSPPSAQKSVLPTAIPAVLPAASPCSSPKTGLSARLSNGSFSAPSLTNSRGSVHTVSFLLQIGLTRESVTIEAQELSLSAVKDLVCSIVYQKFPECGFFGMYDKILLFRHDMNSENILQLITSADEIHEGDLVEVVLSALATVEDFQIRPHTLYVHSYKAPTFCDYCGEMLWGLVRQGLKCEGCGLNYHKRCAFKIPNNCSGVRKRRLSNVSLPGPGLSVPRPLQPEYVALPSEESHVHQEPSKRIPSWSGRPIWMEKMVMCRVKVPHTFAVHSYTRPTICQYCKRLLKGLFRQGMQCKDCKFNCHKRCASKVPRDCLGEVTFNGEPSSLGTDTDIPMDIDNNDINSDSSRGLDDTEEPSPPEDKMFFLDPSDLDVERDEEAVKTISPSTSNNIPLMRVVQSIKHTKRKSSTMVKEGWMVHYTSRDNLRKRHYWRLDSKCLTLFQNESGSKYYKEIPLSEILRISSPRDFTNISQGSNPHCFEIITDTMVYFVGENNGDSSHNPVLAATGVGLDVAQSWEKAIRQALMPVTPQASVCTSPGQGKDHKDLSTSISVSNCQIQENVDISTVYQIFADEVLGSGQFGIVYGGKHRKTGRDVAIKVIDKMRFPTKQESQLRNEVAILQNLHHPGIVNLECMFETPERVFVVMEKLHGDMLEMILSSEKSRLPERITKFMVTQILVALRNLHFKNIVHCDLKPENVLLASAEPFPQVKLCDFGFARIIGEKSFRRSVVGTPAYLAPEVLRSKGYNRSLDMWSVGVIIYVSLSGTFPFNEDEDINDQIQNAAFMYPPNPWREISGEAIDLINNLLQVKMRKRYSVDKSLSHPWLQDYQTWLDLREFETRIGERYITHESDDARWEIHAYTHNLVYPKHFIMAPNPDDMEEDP

[13] = target: Tyrosine-protein kinase Mer ; MERTK ; Q12866 (Homo sapiens, UniProt Q12866)
Tyrosine-protein kinase Mer ; MERTK ; Q12866, sequence (Q12866 whole entry): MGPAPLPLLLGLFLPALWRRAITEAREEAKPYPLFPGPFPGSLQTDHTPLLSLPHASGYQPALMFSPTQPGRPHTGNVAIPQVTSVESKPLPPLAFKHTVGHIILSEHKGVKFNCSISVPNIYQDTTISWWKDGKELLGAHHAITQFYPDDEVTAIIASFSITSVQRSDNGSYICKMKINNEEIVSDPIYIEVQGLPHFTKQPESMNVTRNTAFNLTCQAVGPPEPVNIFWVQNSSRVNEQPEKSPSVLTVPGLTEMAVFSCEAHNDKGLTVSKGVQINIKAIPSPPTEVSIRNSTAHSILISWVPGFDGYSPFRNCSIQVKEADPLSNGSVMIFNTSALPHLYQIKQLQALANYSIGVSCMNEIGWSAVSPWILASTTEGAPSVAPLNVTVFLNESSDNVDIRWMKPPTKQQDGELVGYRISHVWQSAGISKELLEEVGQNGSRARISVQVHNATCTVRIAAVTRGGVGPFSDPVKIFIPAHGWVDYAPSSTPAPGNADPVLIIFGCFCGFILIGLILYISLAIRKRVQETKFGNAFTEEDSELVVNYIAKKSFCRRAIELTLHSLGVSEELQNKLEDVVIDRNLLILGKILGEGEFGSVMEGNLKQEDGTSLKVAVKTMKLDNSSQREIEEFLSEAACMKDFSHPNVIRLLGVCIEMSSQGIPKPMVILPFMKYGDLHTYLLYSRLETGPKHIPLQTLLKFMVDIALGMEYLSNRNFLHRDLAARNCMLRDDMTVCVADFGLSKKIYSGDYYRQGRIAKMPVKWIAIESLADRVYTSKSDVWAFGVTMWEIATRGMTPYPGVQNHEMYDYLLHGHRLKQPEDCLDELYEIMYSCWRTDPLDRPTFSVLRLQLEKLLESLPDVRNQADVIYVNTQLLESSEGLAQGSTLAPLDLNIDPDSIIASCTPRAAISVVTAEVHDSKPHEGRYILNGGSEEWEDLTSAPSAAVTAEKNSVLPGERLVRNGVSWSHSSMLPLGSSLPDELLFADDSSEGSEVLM

[14] = target: Ribosomal protein S6 kinase alpha-3 ; RPS6KA3 ; P51812 (Homo sapiens, UniProt P51812)
[15] = target: Ephrin type-A receptor 5 ; EPHA5 ; P54756 (Homo sapiens, UniProt P54756)
[16] = target: Calcium/calmodulin-dependent protein kinase type II subunit delta ; CAMK2D ; Q13557 (Homo sapiens, UniProt Q13557)
Calcium/calmodulin-dependent protein kinase type II subunit delta ; CAMK2D ; Q13557, sequence (Q13557 whole entry, one chain of several): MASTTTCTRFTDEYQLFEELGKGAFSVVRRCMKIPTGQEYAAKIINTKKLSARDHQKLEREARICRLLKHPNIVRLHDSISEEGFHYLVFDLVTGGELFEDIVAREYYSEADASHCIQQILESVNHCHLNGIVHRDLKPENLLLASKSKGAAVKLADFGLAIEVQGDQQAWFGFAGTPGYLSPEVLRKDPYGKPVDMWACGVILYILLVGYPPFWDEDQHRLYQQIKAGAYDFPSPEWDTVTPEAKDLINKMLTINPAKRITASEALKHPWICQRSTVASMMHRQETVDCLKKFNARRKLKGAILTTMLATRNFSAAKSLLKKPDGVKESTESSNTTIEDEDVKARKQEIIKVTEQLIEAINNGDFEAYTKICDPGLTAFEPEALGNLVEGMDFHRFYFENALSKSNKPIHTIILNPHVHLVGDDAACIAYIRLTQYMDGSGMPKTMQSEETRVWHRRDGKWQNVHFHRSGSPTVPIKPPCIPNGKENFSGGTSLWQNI

[17] = target: Ephrin type-B receptor 4 ; EPHB4 ; P54760 (Homo sapiens, UniProt P54760)
Ephrin type-B receptor 4 ; EPHB4 ; P54760, sequence (P54760 whole entry): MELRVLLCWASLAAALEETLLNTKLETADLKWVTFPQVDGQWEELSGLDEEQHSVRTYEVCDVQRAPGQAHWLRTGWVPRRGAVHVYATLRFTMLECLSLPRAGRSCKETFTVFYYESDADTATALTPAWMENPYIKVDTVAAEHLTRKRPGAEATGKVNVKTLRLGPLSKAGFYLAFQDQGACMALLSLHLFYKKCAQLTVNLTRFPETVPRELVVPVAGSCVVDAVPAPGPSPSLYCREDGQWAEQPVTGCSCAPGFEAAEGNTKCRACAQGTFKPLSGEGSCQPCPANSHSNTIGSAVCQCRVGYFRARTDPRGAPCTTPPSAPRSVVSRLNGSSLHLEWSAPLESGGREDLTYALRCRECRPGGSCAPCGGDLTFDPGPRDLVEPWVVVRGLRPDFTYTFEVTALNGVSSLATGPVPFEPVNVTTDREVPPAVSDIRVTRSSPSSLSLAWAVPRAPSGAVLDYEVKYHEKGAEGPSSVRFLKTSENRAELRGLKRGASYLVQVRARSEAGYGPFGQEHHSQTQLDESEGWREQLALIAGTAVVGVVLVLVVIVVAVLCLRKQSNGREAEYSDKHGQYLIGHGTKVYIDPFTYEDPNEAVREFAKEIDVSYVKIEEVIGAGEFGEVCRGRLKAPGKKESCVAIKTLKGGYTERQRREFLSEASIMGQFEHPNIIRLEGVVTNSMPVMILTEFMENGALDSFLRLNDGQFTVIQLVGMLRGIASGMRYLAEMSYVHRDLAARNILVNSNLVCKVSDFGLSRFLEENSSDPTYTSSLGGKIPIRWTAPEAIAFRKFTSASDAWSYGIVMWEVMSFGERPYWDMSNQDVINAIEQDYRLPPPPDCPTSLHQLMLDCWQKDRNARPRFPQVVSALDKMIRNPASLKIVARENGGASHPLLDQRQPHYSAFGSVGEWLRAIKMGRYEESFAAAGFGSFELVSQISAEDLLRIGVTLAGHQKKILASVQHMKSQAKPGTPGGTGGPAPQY

[18] = target: Dual specificity protein kinase CLK3 ; CLK3 ; P49761 (Homo sapiens, UniProt P49761)
Dual specificity protein kinase CLK3 ; CLK3 ; P49761, sequence (P49761 whole entry): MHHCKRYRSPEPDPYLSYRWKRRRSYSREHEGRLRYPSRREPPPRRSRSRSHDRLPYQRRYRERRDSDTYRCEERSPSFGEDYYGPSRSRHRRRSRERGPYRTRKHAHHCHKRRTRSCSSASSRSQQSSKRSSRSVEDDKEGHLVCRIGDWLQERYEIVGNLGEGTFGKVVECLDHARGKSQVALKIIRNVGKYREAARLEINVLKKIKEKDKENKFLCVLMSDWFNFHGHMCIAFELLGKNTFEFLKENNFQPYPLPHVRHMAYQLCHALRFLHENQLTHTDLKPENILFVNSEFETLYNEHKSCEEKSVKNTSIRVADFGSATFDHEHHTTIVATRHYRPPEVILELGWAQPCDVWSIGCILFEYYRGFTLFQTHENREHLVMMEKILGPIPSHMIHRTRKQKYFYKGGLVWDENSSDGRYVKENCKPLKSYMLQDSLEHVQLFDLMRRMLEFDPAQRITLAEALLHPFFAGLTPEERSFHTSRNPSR

[19] = read-out: BAY-1143572 (10 µM) / %Intensity relative to DMSO
[20] = read-out: BAY-1251152 (10 µM) / %Intensity relative to DMSO

## COc1cc(F)ccc1-c1ncnc(Nc2cccc(C[S@](C)(=N)=O)c2)n1 [BAY-1143572]
[1]; [19]
  remaining activity at 10 µM: 115%
[2]; [19]
  remaining activity at 10 µM: 79%
[3]; [19]
  remaining activity at 10 µM: 109%
[4]; [19]
  remaining activity at 10 µM: 116%
[5]; [19]
  remaining activity at 10 µM: 91.7%
[6]; [19]
  remaining activity at 10 µM: 80.7%
[7]; [19]
  remaining activity at 10 µM: 87.2%
[8]; [19]
  remaining activity at 10 µM: 106%
[9]; [19]
  remaining activity at 10 µM: 88.8%
[10]; [19]
  remaining activity at 10 µM: 92.9%
[11]; [19]
  remaining activity at 10 µM: 104%
[12]; [19]
  remaining activity at 10 µM: 108%
[13]; [19]
  remaining activity at 10 µM: 86.5%
[14]; [19]
  remaining activity at 10 µM: 115%
[15]; [19]
  remaining activity at 10 µM: 99.7%
[16]; [19]
  remaining activity at 10 µM: 94.4%
[17]; [19]
  remaining activity at 10 µM: 94.1%
[18]; [19]
  remaining activity at 10 µM: 113%

## COc1cc(F)ccc1-c1cc(Nc2cc(CS(C)(=N)=O)ccn2)ncc1F (stereo not drawn) [BAY-1251152]
[1]; [20]
  remaining activity at 10 µM: 101%
[2]; [20]
  remaining activity at 10 µM: 106%
[3]; [20]
  remaining activity at 10 µM: 106%
[4]; [20]
  remaining activity at 10 µM: 110%
[5]; [20]
  remaining activity at 10 µM: 105%
[6]; [20]
  remaining activity at 10 µM: 56%
[7]; [20]
  remaining activity at 10 µM: 104%
[8]; [20]
  remaining activity at 10 µM: 100%
[9]; [20]
  remaining activity at 10 µM: 83.7%
[10]; [20]
  remaining activity at 10 µM: 104%
[11]; [20]
  remaining activity at 10 µM: 109%
[12]; [20]
  remaining activity at 10 µM: 102%
[13]; [20]
  remaining activity at 10 µM: 52.5%
[14]; [20]
  remaining activity at 10 µM: 107%
[15]; [20]
  remaining activity at 10 µM: 109%
[16]; [20]
  remaining activity at 10 µM: 90.9%
[17]; [20]
  remaining activity at 10 µM: 100%
[18]; [20]
  remaining activity at 10 µM: 115%
